Experimental data taken from patent US20160317420A1, “METHOD OF IMPROVING THE APPEARANCE OF SKIN AND COMPOSITIONS THEREFOR” (The Procter & Gamble Company, priority 2015, published 2016).

Key:
[1] = test system: glycation reaction between the gelatin and glyceraldehyde; assay: AGE Assay (in vitro suppression of AGE formation and yellowness reduction); format: biochemical; details: for % reduction in glycation rate vs. pos. ctrl.: 24-hr; for Δb* at 24-hr vs. 0-hour: blank-corrected yellowness; for ΔFLR at 24-hr vs. 0-hr: fluorescence 400/465 nm, 24 hours at 37° C.
Experimental: The anti-glycation ability of NR was determined as follows. Samples were prepared in a 96-well plate (3 replicates each) at a total volume of 250 μl/well. The test samples contained 112.5 μl of 2% w/v gelatin solution (commercially available from Sigma as Catalog # G1393-100 ML), 10 μl of 1 M glyceraldehyde (commercially available from Sigma as Catalog # G5001-1 G), 102.5 p1 Dulbecco's phosphate buffered saline (“DPBS”) (commercially available from Gibco's), and varying doses (0.1%, 0.5%, 1% and 5% w/v) of nicotinamide riboside chloride (“NR”) (available from Chromadex, Irvine, CA). The positive control contained 112.5 μl gelatin, 10 μl of 1 M glyceraldehyde and 127.5 μl DPBS. The negative control contained 112.5 μl gelatin and 137.5 μl DPBS. A 5% w/v niacinamide (“N”) composition was used for a benchmark comparison. The niacinamide sample contained the same amounts of gelatin, glyceraldehyde and DPBS as the 5% NR sample. The plate containing the test samples was placed in a CO2 incubator (e.g., THERMO SCIENTIFIC FORMA brand CO2 incubator available from Fisher Scientific, Waltham, Mass. or equivalent) and incubated for 24 hours at 37° C.
After 24 hours, the plate containing the test samples was removed from the incubator and placed in a SPECTRAMAX Plus brand spectrophotometer (available from Molecular Devices, Sunnyvale, Calif.). The spectrophotometer was set to detect fluorescence intensity (“FLR”) at 400/465 nm (ex/em). Glycation rate was determined by measuring FLR, at 0-hour (i.e., at the start of the test), 2-hour, 5-hour and 24-hour time points. The change in fluorescence intensity (“ΔFLR”) was determined by comparing the FLR of a well at a sampling time point to the 0-hour time point. To determine yellowness (i.e., b* value), a SPECTRAMAX Plus brand spectrophotometer was used to collect wavelength/absorbance pairs from 350 nm to 750 nm in 10 nm increments following the same time course as the FLR measurements (i.e., 0-hour, 2-hour, 5-hour and 24-hour). The wavelength/absorbance pairs were then converted to L*a*b* values by a computer using conversion software. The change in yellowness (“Ab*”) at a particular time point was determined by subtracting the b* value at the 0-hour time point from the b* value measured at the time point of interest. To correct for yellowness that is not due to the glycation reaction between the gelatin and glyceraldehyde, a blank well was set up for each treatment leg. The blank well contains every ingredient in the corresponding treatment leg except for the gelatin. The b* value of the blank well is subtracted from the b* value measured for each well before calculating the final Ab* value.

[2] = test system: HMGB1 released from human neonatal keratinocytes exposed to CSE; assay: HMGB1 Assay (in vitro stress test, cigarette smoke extract); format: cell-based; details: 0.01% w/v + CSE; for AVG HMGB1 released: keratinocytes, 24 hours, ELISA; for effect on the amount of HMGB1 released by keratinocytes exposed to CSE, relative to CSE test medium: p<0.1 significant
Experimental: Human neonatal keratinocytes (available from Thermo) were placed in each well of four 12-well plates. Each well also contained 2 ml of EPILIFE brand keratinocyte medium. The plates were incubated at 37 ° C. in a CO2 incubator until cell confluency reached 70%. Once the cell confluency reached 70%, the keratinocyte medium in each well was replaced with the appropriate medium for the test (i.e., control medium, CSE test medium, niacinamide (“N”)+CSE test medium or nicotinamide riboside chloride (“NR”)+CSE test medium) to produce test samples. The resulting test samples were incubated for 24 hours at 37 ° C. in a CO2 incubator, after which the medium in each cell was removed and the HMGB 1 levels were determined using an ELISA kit from IBL according to the manufacturer's instructions.
The N and NR media were made by adding either niacinamide or nicotinamide riboside chloride (available from Chromadex, Irvine, Calif.) to EPILIFE brand keratinocyte medium to produce a 0.01% w/v solution. The cigarette smoke extract was made by suctioning a lit cigarette through a vacuum flask containing 60 mL of phosphate buffered saline (“PBS”). 4 CAMEL brand cigarettes with the filters cut off were used to create a batch of CSE. The CSE was diluted 1:20 using keratinocyte medium to create the CSE test medium. The N+CSE medium and NR+CSE medium were prepared by adding CSE test medium to final dilution of 1:6 (CSE:medium) and either N or NR to final dilution of 0.01% w/v. Unmodified keratinocyte medium was used as the control.

SMILES	% reduction in glycation rate vs. pos. ctrl. ([1]; 5% w/v) [%]	Δb* at 24-hr vs. 0-hour ([1]; 5% w/v)	ΔFLR at 24-hr vs. 0-hr ([1]; 5% w/v)	AVG HMGB1 released [2] [ng/mL]	effect on the amount of HMGB1 released by keratinocytes exposed to CSE, relative to CSE test medium [2]	% reduction in glycation rate vs. pos. ctrl. ([1]; 0.1% w/v) [%]	Δb* at 24-hr vs. 0-hour ([1]; 0.1% w/v)	ΔFLR at 24-hr vs. 0-hr ([1]; 0.1% w/v)	% reduction in glycation rate vs. pos. ctrl. ([1]; 0.5% w/v) [%]	Δb* at 24-hr vs. 0-hour ([1]; 0.5% w/v)	ΔFLR at 24-hr vs. 0-hr ([1]; 0.5% w/v)	% reduction in glycation rate vs. pos. ctrl. ([1]; 1% w/v) [%]	Δb* at 24-hr vs. 0-hour ([1]; 1% w/v)	ΔFLR at 24-hr vs. 0-hr ([1]; 1% w/v)
NC(=O)c1cccnc1 [N, niacinamide, reference compound]	33.2	9.19	2341	4.2790	no significant effect									
NC(=O)c1ccc[n+]([C@@H]2O[C@H](CO)[C@@H](O)[C@H]2O)c1 [NR, nicotinamide riboside chloride]	98.8	−2.09	41	2.0741	significantly reduce	22.2	9.44	2729	63	−4.24	1294	85.5	−11.00	507
